Converted amounts (≈) assume the structure as drawn. The source made the active and inactive calls. No cut-off for these calls is given here.
What was measured:
[1] = tested on: Candida albicans; assay: Antifungal activity against Candida albicans ATCC 10231 by broth dilution method; format: functional
[2] = tested on: Candida albicans; assay: Antifungal activity against Candida albicans CA5 by broth dilution method; format: functional
[3] = tested on: Pichia kudriavzevii; assay: Antifungal activity against Candida krusei ATCC 34135 by broth dilution method; format: functional
[4] = tested on: Candida parapsilosis; assay: Antifungal activity against Candida parapsilosis C27 by broth dilution method; format: functional; conditions: Lodderomyces parapsilosis
[5] = tested on: Aspergillus fumigatus; assay: Antifungal activity against Aspergillus fumigatus ATCC 13073 by broth dilution method; format: functional
[6] = tested on: Fusarium oxysporum; assay: Antifungal activity against Fusarium oxysporum AB18 by broth dilution method; format: functional
[7] = tested on: Microsporum canis; assay: Antifungal activity against Microsporum canis DMT2 by broth dilution method; format: functional
[8] = tested on: Trichophyton mentagrophytes; assay: Antifungal activity against Trichophyton mentagrophytes DMT4 by broth dilution method; format: functional
[9] = tested on: MRC5; assay: Cytotoxicity against human MRC5 cells after 48 hrs by MTT assay; format: cell-based; conditions: MRC5, 48 h
[10] = Hemolytic effect in sheep RBC assessed as release of hemoglobin at MIC after 1 hr; format: ADME, cell-based, Ovis aries, Erythrocyte; conditions: sheep red blood cells, read-out: Activity
[11] = Hemolytic effect in sheep RBC assessed as release of hemoglobin at cytotoxic IC50 after 1 hr; format: cell-based, Ovis aries, Erythrocyte; conditions: sheep red blood cells, read-out: Activity
[12] = tested on: Candida albicans; assay: Induction of DNA intercalation with Candida albicans genomic DNA at 25 ug/ml after 12 hrs by ethidium bromide staining based gel electrophoresis method
[13] = tested on: Candida albicans; assay: Antibiofilm activity against Candida albicans assessed as inhibition of Spider medium-induced hyphae formation at sub-MIC after 24 hrs by propidium iodide and FITC-conjugated concanavaline A staining based fluorescence microscopy; format: functional, organism-based
[14] = tested on: Candida albicans; assay: Antibiofilm activity against Candida albicans ATCC 10231 assessed as disruption of preformed biofilm after 24 hrs by concanavalin A-FITC-staining based fluorescence microscopic analysis; format: functional
[15] = tested on: Pichia kudriavzevii; assay: Antibiofilm activity against Pichia kudriavzevii ATCC 34135 assessed as disruption of preformed biofilm after 24 hrs by concanavalin A-FITC-staining based fluorescence microscopic analysis; format: functional
[16] = tested on: Candida parapsilosis; assay: Antibiofilm activity against Candida parapsilosis C27 assessed as disruption of preformed biofilm after 24 hrs by concanavalin A-FITC-staining based fluorescence microscopic analysis; format: functional
[17] = Induction of membrane damage in PC/PS liposome assessed as calcein release at MIC after 30 mins by fluorescence-based liposome leakage assay; format: functional

| Compound | MIC [1] [µg/mL] | MIC [2] [µg/mL] | MIC [3] [µg/mL] | MIC [4] [µg/mL] | MIC [5] [µg/mL] | MIC [6] [µg/mL] | MIC [7] [µg/mL] | MIC [8] [µg/mL] | IC50 [9] [µg/mL] | hemolysis at 1 h [10] [%] | hemolysis at 1 h [11] [%] | Activity [12] | Activity [13] | MBEC [14] [µg/mL] | MBEC [15] [µg/mL] | MBEC [16] [µg/mL] | Activity [17] [%] |
| --- | --- | --- | --- | --- | --- | --- | --- | --- | --- | --- | --- | --- | --- | --- | --- | --- | --- |
| Cl.N=C(N)N/N=C/c1ccc(-c2ccc(F)cc2)s1 | 3.9 | 1.95 | 6.25 | 6.25 | 25 | > 250 | 0.97 | 1.56 | 4 | ≤ 10 | ≤ 10 | Active | Active | >1000 | >1000 | >1000 | – |
| Cl.N#Cc1ccc(-c2ccc(/C=N/NC(=N)N)s2)cc1 | 3.9 | 7.8 | 25 | 12.5 | 25 | > 250 | 0.97 | 6.25 | 5 | ≤ 10 | ≤ 10 | Active | Active | 250 | >1000 | 1000 | – |
| Cl.N=C(N)N/N=C/c1ccc(-c2ccccc2)s1 | 1.95 | 1.95 | 6.25 | 6.25 | 25 | 62.5 | 1.56 | 3.12 | 5 | ≤ 10 | ≤ 10 | Active | Active | 1000 | >1000 | >1000 | – |
| NYSTATIN | – | – | – | – | – | – | – | – | – | – | – | – | – | – | – | – | 21 |
| O=Cc1ccc(-c2ccccc2)s1 | 250 (≈ 1330 µM) | 250 (≈ 1330 µM) | > 250 | > 250 | 125 (≈ 664 µM) | 250 (≈ 1330 µM) | 250 (≈ 1330 µM) | 250 (≈ 1330 µM) | 50 (≈ 266 µM) | ≤ 10 | ≤ 10 | inactive | Active | >1000 | >1000 | >1000 | – |

— ChEMBL document CHEMBL3763135, “Synthesis and evaluation of thiophene-based guanylhydrazones (iminoguanidines) efficient against panel of voriconazole-resistant fungal isolates” (Bioorg Med Chem, 2016)
